Reference: patent US9199200B2, “Submerged membrane bioreactor system and biological methods for removing bisphenol compounds from municipal wastewater” (Centre de Recherche Industrielle de Québec (CRIQ), priority 2010, dated 2015)

What was measured:
[1] = Equilibrium adsorption isotherms of BPA on inactivated sludge (Freundlich, Langmuir); assay type: physicochemical
Description: To elucidate the plausible mechanisms of the biological removal of the bisphenol compounds, the removal of BPA was tested (adsorption on the biomass versus biological oxidation), and additional experiments are carried out in Erlenmeyer shake flasks containing either activated sludge or inactivated sludge in the presence of BPA. The sludge used for the tests is withdrawn from the SMBR unit. Prior to BPA addition in activated sludge sample, sludge is initially centrifuged at 8000 rpm at 4° C. for 10 min and softly washed. The inactivated sludge is prepared by subjecting sludge samples to a sterilization by adding 1.0 mL HgSO4 (20 g/L) to 200 mL of sludge. Then, the sterilized and centrifuged sample sludge is placed in conical flasks and shaken at 150 rpm at 22±2° C. for 2 h, and then centrifuged at 8000 rpm at 4° C. for 10 min. Different concentrations of BPA (0.45 to 18.2 mg/L) are added in the same mass of sludge (3.0 g of sludge diluted to 200 mL with milli-Q water). The concentration of total suspended solid (sludge) in the flask was 15 g TSS L^−1, which is similar to that observed in the SMBR system of the present invention. Three types of experiments are successively carried out. The first set tests consists in evaluating the adsorption capacity of BPA on sludge. For that, two Erlenmeyer shake flasks containing 200 mL of activated sludge (15 g TSS L^−1) are respectively contaminated by 5 and 10 mg/L of BPA. The flasks are shaken at 150 rpm at 22±2° C., pH=7±0.5 for 24 h and samples are taken in regular time intervals, and the amount of BPA adsorbed is determined by measuring the residual BPA concentrations in solution The same assay is carried out using inactivated sludge. Subsequently, isotherm adsorption experiments are carried out using different concentrations of BPA (0.45-18.2 mg/L) spiked in a same mass of sludge (200 ml of inactivated sludge at 15 g TSS/L). The flasks are shaken at 150 rpm for 2 h and samples are taken for analysis.
By analogy, the amount of BPA adsorbed on sludge at equilibrium (qe, mg/g) and the sorption efficiency is determined according to equations (1) described above. The specific adsorption coefficient (KD) can also be calculated. The coefficient KD is the ratio between the amount of BPA adsorbed on sludge at equilibrium (qe) and the residual (Ce) concentrations, according to the following equation (Eq. (3)): […]
Thermodynamic equilibrium constants are determined in order to evaluate adsorption affinity of BPA on sludge. The amount of BPA adsorbed on sludge is calculated using the following equation (Eq. (10)): […]
Adsorption isotherms allow presenting the variation of sorption with respect to the concentration of sorbate in the bulk solution at constant temperature. Equilibrium adsorptions of BPA on the biomass using Freundlich and Langmuir models are studied. These isotherms describe BPA uptake per unit weight of sorbent (qe) in function of the equilibrium sorbate concentration in the bulk solution (Ce). The Freundlich isotherm is described by the following equation (Eq. (11)) and is illustrated in FIG. 12: […]
The Langmuir isotherm is described by the following equation (Eq. (12)) and is represented in FIG. 13: […]
In fact, Langmuir adsorption isotherm is valid for monolayer sorption on a surface containing a limited number of sites, predicting a homogenous distribution of sorption energy. The reorganization of Eq. (12) leads to the following equation (Eq. (13)) as the linearised form of the Langmuir isotherm: […]
From Langmuir isotherm, it is possible to define a dimensionless constant (RL) taking into account the separation factor of equilibrium parameter. This dimensionless constant allows predicting if the adsorption system is favorable or not, as explained in Shokoohi et al. as cited above and by Gao et al. Journal of Fluorine Chemistry 130 (2009) 1035-1041. RL can be evaluated using the following equation (Eq. (14)): […]

[2] = Adsorption kinetics of BPA on inactivated sludge (pseudo-first order, pseudo-second order, Elovich); assay type: physicochemical
Description: According to the second set of assays, adsorption kinetic is evaluated using 200 mL of inactivated sludge at 15 g L^−1 and 2.0 mg/L of BPA is initially used. The flasks are shaken at 150 rpm at 22±2° C. and samples are taken at regular interval times (5, 10, 15, 20, 30, 40, 60, 80, 100, 120 min). Several appropriate models are reported in literature, but for the purposes of the experiments, three models are used, namely the Lagergren model (first order model) as described by Lagergren in Kung Sven. Veten. Hand 24 (1898) 1-39, the pseudo-second-order as described by Ho et al. in Process Biochemistry 34 (1999) 451-465, and the Elovich model as described in Chemical reviews (1960) 267-312.
Adsorption kinetic allows controlling the efficiency of the process and can be helpful to understand the mechanisms of the sorption process. To evaluate the sorption rate, the kinetic data are modeled using pseudo-first order and pseudo-second order equations. The kinetic models parameters are estimated by regression analysis method using Excel™ software. In accordance with Lagegren as cited above and with Bhattacharya et al., J. Env. Eng. ASCE 110 (1984) 110-122, pseudo-first order chemical sorption is described by the following equation (Eq. (15)):
This model is based on the assumption that the rate is proportional to the number of free sites. Integrating Eq. (15) with boundary conditions qt=0 at t=0 and qt=qt at t=t gives (Eq. (16)): ln(qe−qt)=ln qe−k1t (16)
In accordance with Ho et al. as cited above, for the rate constant of pseudo-second order chemical sorption, the following equation (Eq. (17)) has been also applied: […]
A third model, known as Elovich model described in Low et al. cited above, has been applied using the following equation (Eq. (19)): […]
If an amount (q0) of adsorbate is instantaneously adsorbed, after integration equation Eq. (20) becomes (Eq. (21)): […]

[3] = cited from earlier work
[4] = 2.0 mg/L BPA, 15 g/L inactivated sludge

SMILES: CC(C)(c1ccc(O)cc1)c1ccc(O)cc1 [BPA, 2,2-Bis(4-hydroxyphenyl)propane]
- Freundlich parameter shown as formula MATH:00015 [1]: 0.819
- KL (Langmuir constant) [1]: 0.370 L/g
- RL (dimensionless separation factor, Langmuir) [1]: 0.11
- b (Langmuir constant) [1]: 0.444 L/mg
- kf (Freundlich isotherm constant) [1]: 0.231 mg^1-1/n g^−1 · L^1/n
- n (Freundlich constant, adsorption intensity) [1]: 1.22
- qm, maximum BPA concentration capable of being adsorbed on sludge (Langmuir, KL/b) [1]: 0.833 mg/g
- Adsorbed fraction ([1]; C0 0.45 mg/L): 84.4%
- Equilibrium liquid phase concentration of BPA (Ce) ([1]; C0 0.45 mg/L): 0.07 mg/L
- Adsorbed fraction ([1]; C0 0.91 mg/L): 85.7%
- Equilibrium liquid phase concentration of BPA (Ce) ([1]; C0 0.91 mg/L): 0.13 mg/L
- Adsorbed fraction ([1]; C0 1.82 mg/L): 78.6%
- Equilibrium liquid phase concentration of BPA (Ce) ([1]; C0 1.82 mg/L): 0.39 mg/L
- Adsorbed fraction ([1]; C0 4.74 mg/L): 77.0%
- Equilibrium liquid phase concentration of BPA (Ce) ([1]; C0 4.74 mg/L): 1.09 mg/L
- Adsorbed fraction ([1]; C0 9.47 mg/L): 76.0%
- Equilibrium liquid phase concentration of BPA (Ce) ([1]; C0 9.47 mg/L): 2.27 mg/L
- Adsorbed fraction ([1]; C0 13.67 mg/L): 74.8%
- Equilibrium liquid phase concentration of BPA (Ce) ([1]; C0 13.67 mg/L): 3.45 mg/L
- Adsorbed fraction ([1]; C0 18.22 mg/L): 70.5%
- Equilibrium liquid phase concentration of BPA (Ce) ([1]; C0 18.22 mg/L): 5.37 mg/L
- Adsorption removal of BPA on sludge ([1]; of initial liquid phase concentration, 0.45-18.2 mg/L): 70.5 to 85.7%
- q0 as share of the amount of BPA adsorbed at equilibrium (qe) [2]: 1.2%
- k1, pseudo-first order rate constant [2, 4]: 0.032 min⁻¹
- k2, pseudo-second order rate constant [2, 4]: 0.194 g/mg/min
- q0, amount of BPA instantaneously adsorbed (Elovich) [2, 4]: 0.0013 mg/g
- qe, pseudo-first order (Lagergren) [2, 4]: 0.109 mg/g
- qe, pseudo-second order [2, 4]: 0.132 mg/g
- α (Elovich) [2, 4]: 24.98 g/mg
- α (Elovich), second parameter [2, 4]: 0.0040 mg/g/min
- Equilibrium adsorption time ([3]; Chen et al., submerged membrane bioreactor process): 30 min
- Freundlich coefficient log Kf ([3]; Clara et al.): −0.614
- BPA adsorption equilibrium time ([3]; Clara et al., conventional activated sludge reactor): 2 h
